# Reference: publication PMC9241695, “Selective Metal Chelation by a Thiosemicarbazone Derivative Interferes with Mitochondrial Respiration and Ribosome Biogenesis in Candida albicans” (Microbiology Spectrum, 2022)
# Read-outs that look alike come from different tables or passages of the source.
# Experiments:
# C. albicans SC5314 [1] = test: Antifungal susceptibility testing, microbroth dilution MIC; type: cell-based; details: Candida albicans, read-out: MIC (μg/mL) against fungi SC5314
# Excerpt: (§1) Compound library. The thiosemicarbazone derivatives Triapine and COTI-2 were purchased from Med Chem Express (MCE). The other 87 thiosemicarbazones used in this study were previously synthesized by our collaborators (1, 2). Their structures are shown in Table 1 and Table S1 to help the reader clearly understand the relationship between structure and activity.
# (§2) Strains and culture conditions. Clinically derived C. albicans isolates, including G5, F5, and Gu5, were kindly provided by Professor Joachim Morschhäuser of the University of Würzburg. Other clinical C. albicans isolates were kindly donated by Professor Qingguo Qi of Shandong University and Qianfoshan Hospital of Shandong Province Other Candida strains were obtained from Jinan Central Hospital.
# (§3) The zap1 mutant and its complemented strain were kindly provided by Professor Aaron P. Mitchell of Carnegie Mellon University (3). The C. neoformans strains used in this study was kindly donated by Professor Guojian Liao of Southwest University and A. fumigatus strain used in this study was provided by Professor Ling Lu of Nanjing Normal University. Before in vitro and in vivo experiments, all C. albicans strains were grown on YPD agar plates. After culturing at 30°C for 24 h, colonies of each strain were cultured in liquid YPD medium at 30°C with continuous shaking […]
# (§4) Antifungal susceptibility testing. To determine in vitro antifungal activities, the microbroth dilution method was carried out in RPMI1640 medium according to the guidelines of the Clinical and Laboratory Standards Institute (4, 5). The initial concentration in RPMI1640 medium was 1 × 10^3 CFU/mL for the C. albicans and C. neoformans suspensions but 1 × 10^4 CFU/mL for A. fumigatus. The range of final drug concentrations was 0.0156–64 μg/mL. The plates were incubated at35°C for 24 […]
# (§5) h (for C. albicans, C. krusei, C. tropicalis, C. parapsilosis) or 48 h (for C. neoformans, A. fumigatus). The MIC was determined based on visible growth inhibition compared with the control. All experiments were performed in duplicate. […]
# C. neoformans H99 = test: as above; type: cell-based; details: Cryptococcus neoformans, read-out: MIC (μg/mL) against fungi H99
# Excerpt: as §1, §2
# (§6) The zap1 mutant and its complemented strain were kindly provided by Professor Aaron P. Mitchell of Carnegie Mellon University (3). The C. neoformans strains used in this study was kindly donated by Professor Guojian Liao of Southwest University and A. fumigatus strain used in this study was provided by Professor Ling Lu of Nanjing Normal University. […]
# as §4, §5
# A. fumigatus AF293 = test: as above; type: cell-based; details: Aspergillus fumigatus, read-out: MIC (μg/mL) against fungi AF293
# Excerpt: as §1, §2, §6, §4, §5
# A. fumigatus 1161 = test: Microbroth dilution MIC80; type: cell-based; details: Aspergillus fumigatus, 1161
# Excerpt: as §1, §2, §3, §4, §5
# C. albicans 28D = test: Microbroth dilution MIC80; type: cell-based; details: Candida albicans, 28D
# Excerpt: as §1, §2, §3, §4, §5
# C. albicans F5 = test: Microbroth dilution MIC80; type: cell-based; details: Candida albicans, F5
# Excerpt: as §1, §2, §3, §4, §5
# C. albicans YEM13 = test: Microbroth dilution MIC80; type: cell-based; details: Candida albicans
# Excerpt: as §1, §2, §3, §4, §5
# C. albicans 28A = test: Microbroth dilution MIC80; type: cell-based; details: Candida albicans, 28A
# Excerpt: as §1, §2, §3, §4, §5
# C. albicans 24g = test: Microbroth dilution MIC80; type: cell-based; details: Candida albicans, 24G
# Excerpt: as §1, §2, §3, §4, §5
# C. albicans CA3 = test: Microbroth dilution MIC80; type: cell-based; details: Candida albicans, CA3
# Excerpt: as §1, §2, §3, §4, §5
# C. tropicalis CT2 = test: Microbroth dilution MIC80; type: cell-based; details: Candida tropicalis, CT2
# Excerpt: as §1, §2, §3, §4, §5
# C. albicans CA4 = test: Microbroth dilution MIC80; type: cell-based; details: Candida albicans, CA4
# Excerpt: as §1, §2, §3, §4, §5
# C. neoformans 108 = test: Microbroth dilution MIC80; type: cell-based; details: Cryptococcus neoformans, 108
# Excerpt: as §1, §2, §3, §4, §5
# C. albicans 28I = test: Microbroth dilution MIC80; type: cell-based; details: Candida albicans, 28I
# Excerpt: as §1, §2, §3, §4, §5
# C. albicans CA1 = test: Microbroth dilution MIC80; type: cell-based; details: Candida albicans, CA1
# Excerpt: as §1, §2, §3, §4, §5
# C. albicans DSY654 = test: Microbroth dilution MIC80; type: cell-based; details: Candida albicans
# Excerpt: as §1, §2, §3, §4, §5
# C. albicans 11e = test: Microbroth dilution MIC80; type: cell-based; details: Candida albicans, 11E
# Excerpt: as §1, §2, §3, §4, §5
# C. albicans 11f = test: Microbroth dilution MIC80; type: cell-based; details: Candida albicans, 11F
# Excerpt: as §1, §2, §3, §4, §5
# C. albicans YEM15 = test: Microbroth dilution MIC80; type: cell-based; details: Candida albicans, YEM15
# Excerpt: as §1, §2, §3, §4, §5
# C. albicans SC5314 [2] = test: Minimal fungicidal concentration (MFC); type: cell-based; details: Candida albicans, read-out: MFC against C. albicans SC5314
# C. albicans Gu5 = test: microbe, parasite or virus in culture; type: cell-based; details: Candida albicans, GU5
# Excerpt: as §1, §2, §3, §4, §5
# C. albicans G5 = test: microbe, parasite or virus in culture; type: cell-based; details: Candida albicans, G5
# Excerpt: as §1, §2, §3, §4, §5
# [3] = system: human hepatocellular carcinoma cell line HepG2; test: Cytotoxicity testing (MTT); type: cell-based; details: ratio of IC50 against HepG2 to MIC80 against C. albicans SC5314
# [4] = Cytotoxicity testing (MTT); type: cell-based, human; details: human, HepG2 cells (hepatocellular carcinoma cell line)
# [5] = Cytotoxicity testing (MTT); type: cell-based, human; details: human, 48 h, MTT
# Procedure: (§7) h (for C. albicans, C. krusei, C. tropicalis, C. parapsilosis) or 48 h (for C. neoformans, A. fumigatus). The MIC was determined based on visible growth inhibition compared with the control. All experiments were performed in duplicate.
# (§8) Cytotoxicity testing. The cell lines HK2 and 16HBE were used to evaluate the cytotoxicity of 19ak, 19k and 19t. Cells in DMEM containing 10% fetal bovine serum (Gibco) were seeded in 96-well tissue culture plates at a cell density of 1 × 10^4 cells/mL and incubated for 24 h to allow adhesion. The supernatant was then replaced with fresh DMEM containing various concentrations of 19ak, 19k and 19t. The plates were subsequently incubated for an additional 48 h at 37°C with 5% CO2, followed by the addition of 10 μL of MTT solution to each well and incubation at 37°C for 4 h.
# (§9) The effects of the compounds on cell proliferation were detected by measuring the absorbance at 570 nm in a microplate reader (BioTek, VT, USA). Three independent experiments were conducted. […]
# [6] = system: human bronchial epithelial cell line 16HBE; test: Cytotoxicity testing (MTT); type: cell-based; details: ratio of IC50 against 16HBE to MIC80 against C. albicans SC5314
# Procedure: as §7, §8, §9
# [7] = system: human renal epithelial cell line HK2; test: Cytotoxicity testing (MTT); type: cell-based; details: ratio of IC50 against HK2 to MIC80 against C. albicans SC5314
# Procedure: as §7, §8, §9
# C. krusei CK1 = test: Microbroth dilution MIC80; type: cell-based, Candida krusei; details: Pichia kudriavzevii, CK1
# Excerpt: as §1, §2, §3, §4, §5
# C. parapsilosis CP001 = test: Microbroth dilution MIC80; type: cell-based, Candida parapsilosis; details: Lodderomyces parapsilosis, CP001
# Excerpt: as §1, §2, §3, §4, §5
smiles,measurement,setting,value
S=C(N/N=C/c1ccccn1)N1CCOCC1 [Compound 19ao],MIC,"C. albicans SC5314 [1]; SC5314, 24 h",2 µg/mL
same,MIC,"C. neoformans H99; H99, 48 h",0.5 µg/mL
same,MIC,"A. fumigatus AF293; AF293, 48 h",8 µg/mL
S=C(N/N=C/c1ccc(Br)cn1)Nc1ccc(Br)cc1 [Compound 19k],MIC80,A. fumigatus 1161,0.5 µg/mL
same,MIC80,C. albicans 28D,1 µg/mL
same,MIC80,C. albicans F5,1 µg/mL
same,MIC80,C. albicans YEM13,2 µg/mL
same,MIC80,C. albicans 28A,2 µg/mL
same,MIC80,C. albicans 24g,1 µg/mL
same,MIC80,C. albicans CA3,1 µg/mL
same,MIC80,C. tropicalis CT2,2 µg/mL
same,MIC80,C. albicans CA4,0.5 µg/mL
same,MIC80,C. neoformans 108,0.031 µg/mL
same,MIC80,C. albicans 28I,1 µg/mL
same,MIC80,C. albicans CA1,1 µg/mL
same,MIC80,C. albicans DSY654,1 µg/mL
same,MIC80,C. albicans 11e,2 µg/mL
same,MIC80,C. albicans 11f,2 µg/mL
same,MIC80,C. albicans YEM15,2 µg/mL
same,MFC,C. albicans SC5314 [2],> 64 µg/mL
same,MIC80,C. albicans Gu5,2 µg/mL
same,MIC80,C. albicans G5,4 µg/mL
same,MIC,"C. albicans SC5314 [1]; SC5314, C. albicans wild-type strain, RPMI1640, 35°C, 24 h",1 µg/mL
same,Selectivity index HepG2,[3],28
same,IC50,[4],28 µg/mL
same,IC50 at 48 h,"[5]; 16HBE cells (bronchial epithelial cell line), 16HBE cells",36.4 µg/mL
same,IC50 at 48 h,"[5]; HK2 cells (renal epithelial cell line), HK2 cells",63.9 µg/mL
same,Selectivity index 16HBE,[6],36.43
same,Selectivity index HK2,[7],63.88
same,MIC,"C. neoformans H99; H99, C. neoformans wild-type strain, 48 h",0.031 µg/mL
same,MIC,"A. fumigatus AF293; AF293, standard strain of A. fumigatus, 48 h",8 µg/mL
same,MIC80,C. krusei CK1,4 µg/mL
same,MIC80,C. parapsilosis CP001,2 µg/mL
C/C(=N\NC(=S)Nc1cccc(Br)c1)c1ccccn1 [Compound 19q],MIC,"C. albicans SC5314 [1]; SC5314, 24 h",0.5 µg/mL
same,MIC,"C. neoformans H99; H99, 48 h",0.25 µg/mL
same,MIC,"A. fumigatus AF293; AF293, 48 h",1 µg/mL
C/C(=N\NC(=S)Nc1ccccc1Br)c1ccccn1 [Compound 19r],MIC,"C. albicans SC5314 [1]; SC5314, 24 h",1 µg/mL
same,MIC,"C. neoformans H99; H99, 48 h",8 µg/mL
same,MIC,"A. fumigatus AF293; AF293, 48 h",8 µg/mL
